Test results: patent publication US10125126B2, “N-cycloalkyl-N-[(heterocyclylphenyl)methylene]-(thio)carboxamide derivatives” (BAYER CROPSCIENCE AG, priority 2012, dated 2018)

Columns and labels:
[1] = log P by HPLC on a reversed-phase column (C 18), EEC Directive 79/831 Annex V.A8; type: physicochemical; conditions: for logP: HPLC on reversed-phase column (C 18), 40° C., 0.1% aqueous formic acid and acetonitrile, linear gradient 10% to 90% acetonitrile
In short: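 Calibration relied on straight-chain alkan-2-ones with 3 to 16 carbon atoms and known log P, with sample values read by linear interpolation of retention time between two adjacent standards. Separation at 40° C used 0.1% aqueous formic acid with acetonitrile rising linearly from 10% to 90%. UV spectra from 200 nm to 400 nm at chromatographic peak maxima gave lambda-max.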

[2] = tested on: Puccinia recondita; assay: In vivo preventive test on Puccinia recondita (brown rust on wheat); conditions: 500 ppm of active ingredient; wheat plants; 12 days after contamination
In short: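 Wheat plants ("Scipion") at 1-leaf stage, grown at 22° C, were sprayed with compound, then inoculated 24 h later with Puccinia recondita spores (100 000 spores per mL). Efficacy (%) graded 12 days after inoculation relative to solvent-treated controls.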

[3] = tested on: Septoria tritici; assay: In vivo preventive test on Septoria tritici (wheat); conditions: 500 ppm of active ingredient; wheat plants; 24 days after contamination
In short: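 Scipion wheat grown at 22° C, sprayed at 1-leaf stage (10 cm); controls received acetone/tween/DMSO/water without active. Inoculated 24 h later with S. tritici spores (500 000/mL), held 72 h at 18° C, 100% RH, then 21 days at 90% RH. % efficacy vs controls scored 24 days post-inoculation.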

[4] = tested on: Pyrenophora teres; assay: In vivo preventive test on Pyrenophora teres (barley); conditions: 500 ppm of active ingredient; barley plants; 14 days after contamination
Procedure: In Vivo Preventive Test on Pyrenophora teres (Barley) […] Barley plants (“Plaisant” variety), sown in starter cups on a 50/50 peat soil pozzolana substrate and grown at 22° C., are treated at the 1 leaf stage (10 cm height) by spraying with the active ingredient prepared as described above. Plants, used as controls, are treated with the mixture of acetone/tween/DMSO/water not containing the active material. After 24 hours, the plants are contaminated by spraying the leaves with an aqueous suspension of Pyrenophora teres spores (12 000 spores per mL). The spores are collected from a 12-day-old culture. […] Grading (% of efficacy) is carried out 14 days after the contamination, in comparison with the control plants.

[5] = tested on: Uromyces appendiculatus; assay: In vivo preventive test on Uromyces appendiculatus (bean rust); conditions: bean plants, 11 days after contamination
In short: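 Saxa bean plants at 2-leaf stage, grown at 24° C., sprayed preventively with compound; 24 h later inoculated with U. appendiculatus spores (150 000 spores per mL). Percent efficacy graded 11 days after inoculation versus solvent-treated controls.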

[6] = tested on: Alternaria brassicae; assay: In vivo preventive test on Alternaria brassicae (leaf spot on radish); conditions: 500 ppm of active ingredient; radish plants; 6 days after contamination
Procedure: In Vivo Preventive Test on Alternaria brassicae (Leaf Spot on Radish) […] Radish plants (“Pernod Clair” variety), sown in starter cups on a 50/50 peat soil pozzolana substrate and grown at 17° C., are treated at the cotyledon stage by spraying with the active ingredient prepared as described above. Plants, used as controls, are treated with the mixture of acetone/tween/DMSO/water not containing the active material. After 24 hours, the plants are contaminated by spraying the cotyledons with an aqueous suspension of Alternaria brassicae spores (50 000 spores per mL). The spores are collected from a 15-day-old culture. The contaminated radish plants are incubated at 20° C. and at 100% relative humidity. Grading (% of efficacy) is carried out 6 days after the contamination, in comparison with the control plants.

[7] = tested on: Botrytis cinerea; assay: In vivo preventive test on Botrytis cinerea (grey mould); conditions: 500 ppm of active ingredient; gherkin plants; 4 to 5 days after contamination
Procedure: In Vivo Preventive Test on Botrytis cinerea (Grey Mould) […] Gherkin plants (“Vert petit de Paris” variety), sown in starter cups on a 50/50 peat soil pozzolana substrate and grown at 24° C., are treated at the Z11 cotyledon stage by spraying with the active ingredient prepared as described above. Plants, used as controls, are treated with the mixture of acetone/tween/DMSO/water not containing the active material. After 24 hours, the plants are contaminated by spraying the cotyledons with an aqueous suspension of cryopreserved Botrytis cinerea spores (50 000 spores per mL). The spores are suspended in a nutrient solution composed of 10 g/L of PDB, 50 g/L of D-Fructose, 2 g/L of NH4NO3 and 1 g/L of KH2PO4. The contaminated gherkin plants are incubated at 17° C. and at 90% relative humidity. Grading (% of efficacy) is carried out 4 to 5 days after the contamination, in comparison with the control plants.

[8] = tested on: Sphaerotheca fuliginea; assay: In vivo preventive test on Sphaerotheca fuliginea (powdery mildew on cucurbits); conditions: 500 ppm of active ingredient, gherkin plants, 12 days after contamination
In short: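 Gherkin plants ("Vert petit de Paris") grown at 24 °C were sprayed at cotyledon stage Z11; controls received acetone/tween/DMSO/water without active. Inoculation 24 h later by spraying cotyledons with 100 000 spores/mL. Efficacy (%) graded 12 days post-contamination versus controls.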

[9] = tested on: Blumeria graminis f.sp. hordei; assay: In vivo preventive test on Blumeria graminis (barley); conditions: 500 ppm of active ingredient, evaluated 7 days after inoculation
Procedure: (§1) In Vivo Preventive Test on Blumeria graminis (Barley) [table] To produce a suitable preparation of active compound, 1 part by weight of active compound or active compound combination is mixed with the stated amounts of solvent and emulsifier, and the concentrate is diluted with water to the desired concentration. To test for preventive activity, young plants are sprayed with the preparation of active compound or active compound combination at the stated rate of application. After the spray coating has been dried, the plants are dusted with spores of Blumeria graminis f.sp. hordei.

[10] = tested on: Leptosphaeria nodorum; assay: In vivo preventive test on Leptosphaeria nodorum (wheat); conditions: 500 ppm of active ingredient, evaluated 8 days after inoculation
Procedure: as §1, with “Leptosphaeria nodorum Test (Wheat)” for “Blumeria graminis (Barley)”, “sprayed” for “dusted”, “a spore suspension” for “spores”, “Leptosphaeria nodorum. The plants remain for 48 hours in an incubation cabinet at approximately 20° C. and a relative atmospheric humidity of approximately 100%.” for “Blumeria graminis f.sp. hordei.”

logP [1] | chromatographic logP ([1]; logP) | Compound | Efficacy [2] [%] | Efficacy [3] [%] | Efficacy [4] [%] | Efficacy ([5]; 500 ppm of active ingredient) [%] | Efficacy [6] [%] | Efficacy [7] [%] | Efficacy [8] [%] | Efficacy [9] [%] | pest or weed control at 500 ppm ([8]; Podosphaera fuliginea, 288 h, read-out: Efficacy) [%] | Efficacy [10] [%] | Efficacy ([5]; 100 ppm of active ingredient) [%]
3.23 |  | Cn1nc(C(F)F)c(C(=O)N(Cc2ccccc2-c2ccoc2)C2CC2)c1F [I.29] | 81 | 96 | 93 | 100 | 82 | 100 |  |  |  |  | 
2.34 |  | Cn1cc(-c2ccccc2CN(C(=O)c2c(C(F)F)nn(C)c2F)C2CC2)cn1 [I.54] | 80 | 100 |  | 97 | 83 | 97 | 95 |  |  |  | 
4.11 |  | Cn1nc(C(F)F)c(C(=O)N(Cc2cc(Cl)ccc2-c2cccs2)C2CC2)c1F [I.68] | 94 | 83 |  | 100 | 71 |  | 94 |  |  |  | 
 | 3.99 | Cc1csc(-c2ccccc2CN(C(=O)c2c(C(F)F)nn(C)c2F)C2CC2)c1 [I.100, N-cyclopropyl-3-(difluoromethyl)-5-fluoro-1-methyl-N-[2-(4-methyl-2-thienyl)benzyl]-1H-pyrazole-4-carboxamide] | 100 | 100 | 95 | 100 |  | 80 |  | 100 | 100 | 83 | 
4.09 |  | Cc1csc(-c2ccc(F)cc2CN(C(=O)c2c(C(F)F)nn(C)c2F)C2CC2)c1 [I.101] | 100 | 100 | 95 | 100 | 83 | 99 | 100 |  |  |  | 
3.94 |  | Cc1cscc1-c1ccc(F)cc1CN(C(=O)c1c(C(F)F)nn(C)c1F)C1CC1 [I.102] | 100 | 95 |  | 100 | 83 | 94 | 100 |  |  |  | 
4.34 |  | Cc1cscc1-c1ccc(Cl)cc1CN(C(=O)c1c(C(F)F)nn(C)c1F)C1CC1 [I.104] | 95 | 88 | 70 | 100 | 83 | 93 | 100 |  |  |  | 
3.90 |  | Cc1cscc1-c1ccccc1CN(C(=O)c1c(C(F)F)nn(C)c1F)C1CC1 [I.105] | 100 | 80 | 97 | 100 |  |  | 100 | 100 |  |  | 
4.39 |  | Cn1nc(C(F)F)c(C(=O)N(Cc2cc(F)ccc2-c2csc3ccccc23)C2CC2)c1F [I.154] | 75 | 96 | 71 |  | 75 |  | 98 |  |  |  | 

The remaining lines, values behind:

Compound | logP [1] | chromatographic logP ([1]; logP) | Efficacy [2] [%] | Efficacy [3] [%] | Efficacy [4] [%] | Efficacy ([5]; 500 ppm of active ingredient) [%] | Efficacy [6] [%] | Efficacy [7] [%] | Efficacy [8] [%] | Efficacy [9] [%] | pest or weed control at 500 ppm ([8]; Podosphaera fuliginea, 288 h, read-out: Efficacy) [%] | Efficacy [10] [%] | Efficacy ([5]; 100 ppm of active ingredient) [%]
Cn1nc(C(F)F)c(C(=O)N(Cc2cc(Cl)ccc2-c2ccoc2)C2CC2)c1F [I.28] | 3.64 |  | 94 | 97 | 79 | 99 | 96 |  |  |  |  |  | 
CC(C)c1ccc(-c2ccn(C)c2)cc1CN(C(=O)c1c(C(F)F)nn(C)c1F)C1CC1 [I.50] | 3.99 |  | 100 | 97 | 100 | 99 | 96 | 99 | 100 |  |  |  | 
Cn1cc(C(=O)N(Cc2ccccc2-c2cccs2)C2CC2)c(C(F)F)n1 [I.72] | 3.25 |  |  | 80 |  | 83 | 70 |  | 90 |  |  |  | 
Cn1nc(C(F)F)c(C(=S)N(Cc2cc(Cl)ccc2-c2cccs2)C2CC2)c1F [I.74] | 4.69 |  | 94 |  |  | 100 | 83 | 100 | 100 |  |  |  | 
Cn1nc(C(F)F)c(C(=O)N(Cc2cc(F)ccc2-c2coc3ccccc23)C2CC2)c1F [I.129] | 4.06 |  |  | 90 | 86 | 96 | 97 | 92 | 100 |  |  |  | 
Cn1nc(C(F)F)c(C(=O)N(Cc2cc(Cl)ccc2-c2coc3ccccc23)C2CC2)c1F [I.130] | 4.44 |  | 81 | 93 | 79 | 85 | 96 |  | 100 |  |  |  | 
Cn1nc(C(F)F)c(C(=O)N(Cc2ccccc2-c2coc3ccccc23)C2CC2)c1F [I.131] | 3.96 |  | 75 | 96 | 93 |  | 91 | 100 | 98 |  |  |  | 
Cn1nc(C(F)F)c(C(=O)N(Cc2cc(F)ccc2-c2ccsc2Cl)C2CC2)c1F [I.136] | 4.04 |  | 98 | 93 | 86 | 100 | 70 |  | 100 |  |  |  | 
Cn1nc(C(F)F)c(C(=O)N(Cc2cc(Cl)ccc2-c2ccsc2Cl)C2CC2)c1F [I.137] | 4.41 |  | 88 | 97 | 79 |  | 70 |  | 100 |  |  |  | 
Cn1cc(C(=O)N(Cc2ccccc2-c2ccc(Cl)s2)C2CC2)c(C(F)F)n1 [I.140] | 3.87 |  |  | 96 |  | 73 | 90 |  |  |  |  |  | 
Cn1nc(C(F)F)c(C(=O)N(Cc2cc(-c3ccc(Cl)s3)ccc2Cl)C2CC2)c1F [I.143] | 4.83 |  | 88 | 100 | 79 |  |  | 98 | 100 |  |  |  | 93
